Test results reported in patent publication US10111437B2, “Substituted guanidines as fungicides” (Nippon Soda Co., Ltd., priority 2015, dated 2018).

Assays:
[1] = system: wheat leaf rust fungus (Puccinia recondita); assay: Wheat leaf rust control test (foliar spray on wheat seedlings); format: in vivo; conditions: 240 h, 125 ppm active ingredient, sprayed on wheat seedlings (variety Norin 61) before inoculation, 10 days, vs untreated
[2] = system: Apple scab fungus (Venturia inaequalis); assay: Apple scab control test (foliar spray on apple seedlings); format: in vivo; conditions: 125 ppm active ingredient, sprayed on apple seedlings (variety Orin) before inoculation, vs untreated
Protocol: The dilution was sprayed to apple seedlings (variety “Orin”, 3 to 4 leaf stage) grown in clay pots. […] The control value was calculated by the following equation. [formula]

[3] = system: cucumber gray mold fungus (Botrytis cinerea); assay: Cucumber gray mold control test (foliar spray on cucumber seedlings); conditions: in Cucumis sativus, 96 h, read-out: control value
[4] = system: Tomato late blight fungus (Phytophthora infestans); assay: whole plant or invertebrate; format: in vivo; conditions: foliar, 96 h, read-out: control value

N=C(N)NCCCCCCCNC(=N)NCCCCOc1ccc(C(=N)N)cc1 [compound 16, 4-[4-[[N-(7-guanidinoheptyl)carbamimidoyl]amino]butoxy]benzamidine]
pest or weed control at 125 ppm [1]: ≥ 75%

N=C(N)NCCCCCCCNC(=N)NCCOCc1cc(C(=N)N)cs1 [compound 48, 5-[2-[[N-(7-guanidinoheptyl)carbamimidoyl]amino]ethoxymethyl]thiophene-3-carboxamidine]
pest or weed control at 125 ppm [2]: ≥ 75% | pest or weed control at 125 ppm [1]: ≥ 75% | pest or weed control at 125 ppm [3]: ≥ 75%

N=C(N)NCCCCCCCNC(=N)NCCCC#Cc1nc(C(=N)N)cs1 [compound 50, 2-[5-[[N-(7-guanidinoheptyl)carbamimidoyl]amino]pent-1-ynyl]thiazole-4-carboxamidine]
pest or weed control at 125 ppm [2]: ≥ 75% | pest or weed control at 125 ppm [1]: ≥ 75% | pest or weed control at 125 ppm [3]: ≥ 75%

N=C(N)NCCCCCNC(=N)NCCCCOc1ccc(C(=N)N)cc1 [compound 59]
pest or weed control at 125 ppm [2]: ≥ 75% | pest or weed control at 125 ppm [1]: ≥ 75% | pest or weed control at 125 ppm [3]: ≥ 75%

CN(CCCOc1ccc(C(=N)N)cc1)C(=N)NCCCOc1ccc(C(=N)N)cc1 [compound 72]
pest or weed control at 125 ppm [2]: ≥ 75% | pest or weed control at 125 ppm [1]: ≥ 75% | pest or weed control at 125 ppm [3]: ≥ 75%

N=C(N)c1ccc(OCCCn2ccn(CCCOc3ccc(C(=N)N)cc3)c2=N)cc1 [compound 89]
pest or weed control at 125 ppm [2]: ≥ 75% | pest or weed control at 125 ppm [1]: ≥ 75% | pest or weed control at 125 ppm [4]: ≥ 75%

CNCCNC(=N)NCCCCCCCCNC(=N)NCCCCOc1ccc(C(=N)N)cc1 [compound 147]
pest or weed control at 125 ppm [2]: ≥ 75% | pest or weed control at 125 ppm [4]: ≥ 75% | pest or weed control at 125 ppm [3]: ≥ 75%

N=C(N)c1ccc(OCCCn2cc(-c3ccccc3)n(CCCOc3ccc(C(=N)N)cc3)c2=N)cc1 [compound 149]
pest or weed control at 125 ppm [2]: ≥ 75% | pest or weed control at 125 ppm [4]: ≥ 75% | pest or weed control at 125 ppm [3]: ≥ 75%

N=C(NCC#Cc1ccc(C(=N)N)cc1)NCC#Cc1ccc(C(=N)N)cc1 [compound 155]
pest or weed control at 125 ppm [2]: ≥ 75% | pest or weed control at 125 ppm [4]: ≥ 75% | pest or weed control at 125 ppm [3]: ≥ 75%

N=C(N)c1ccc(COCCCn2ccn(CCCOc3ccc(C(=N)N)cc3)c2=N)cc1 [compound 159]
pest or weed control at 125 ppm [2]: ≥ 75% | pest or weed control at 125 ppm [4]: ≥ 75% | pest or weed control at 125 ppm [3]: ≥ 75%

N=C(N)c1ccc(SCCCn2ccn(CCCSc3ccc(C(=N)N)cc3)c2=N)cc1 [compound 181]
pest or weed control at 125 ppm [2]: ≥ 75% | pest or weed control at 125 ppm [4]: ≥ 75% | pest or weed control at 125 ppm [3]: ≥ 75%

N=C(N)NCCCCCCCNC(=N)NCCCOc1ccc(C2=NCCCN2)cc1 [compound 190]
pest or weed control at 125 ppm [2]: ≥ 75% | pest or weed control at 125 ppm [4]: ≥ 75% | pest or weed control at 125 ppm [3]: ≥ 75%

N=C(NCCCCOc1ccc(C(=N)N)cc1)NCCCc1cc2cc(C(=N)N)ccc2o1 [compound 196]
pest or weed control at 125 ppm [2]: ≥ 75% | pest or weed control at 125 ppm [4]: ≥ 75% | pest or weed control at 125 ppm [3]: ≥ 75%

N=C(N)NCCCCCCCCNC(=N)NCCCSc1ccc(C(=N)N)cc1 [compound 198]
pest or weed control at 125 ppm [2]: ≥ 75% | pest or weed control at 125 ppm [4]: ≥ 75% | pest or weed control at 125 ppm [3]: ≥ 75%

N=C(N)NCCCCCCCNC(=N)NCCCCOc1ccc(C2=NCCCN2)cc1 [compound 202]
pest or weed control at 125 ppm [2]: ≥ 75% | pest or weed control at 125 ppm [4]: ≥ 75% | pest or weed control at 125 ppm [3]: ≥ 75%

N=C(N)NCCCCCCCCNC(=N)NCCCCOc1ccc(C2=NCCCN2)cc1 [compound 204]
pest or weed control at 125 ppm [1]: ≥ 75% | pest or weed control at 125 ppm [4]: ≥ 75% | pest or weed control at 125 ppm [3]: ≥ 75%

N=C(N)NCCCCCCCn1ccn(CCCCOc2ccc(C3=NCCCN3)cc2)c1=N [compound 208]
pest or weed control at 125 ppm [2]: ≥ 75% | pest or weed control at 125 ppm [4]: ≥ 75% | pest or weed control at 125 ppm [3]: ≥ 75%

N=C(N)NCCCCCCCCn1ccn(CCCCOc2ccc(C3=NCCCN3)cc2)c1=N [compound 210]
pest or weed control at 125 ppm [2]: ≥ 75% | pest or weed control at 125 ppm [4]: ≥ 75% | pest or weed control at 125 ppm [3]: ≥ 75%

N=C(N)NCCCCCCCCCn1ccn(CCCCOc2ccc(C3=NCCCN3)cc2)c1=N [compound 212]
pest or weed control at 125 ppm [2]: ≥ 75% | pest or weed control at 125 ppm [4]: ≥ 75% | pest or weed control at 125 ppm [3]: ≥ 75%

N=C(N)c1ccc(OCCCCn2ccn(CCCCOc3ccc(C4=NCCCN4)cc3)c2=N)cc1 [compound 214]
pest or weed control at 125 ppm [2]: ≥ 75% | pest or weed control at 125 ppm [4]: ≥ 75% | pest or weed control at 125 ppm [3]: ≥ 75%

N=C(N)NCCCCCCCCn1ccn(CCCCOc2ccc(C(=N)N)cc2)c1=N [compound 216]
pest or weed control at 125 ppm [1]: ≥ 75% | pest or weed control at 125 ppm [4]: ≥ 75% | pest or weed control at 125 ppm [3]: ≥ 75%

N=C(N)NCCCCCCCCCNC(=N)NCCCOc1ccc(C2=NCCCN2)cc1 [compound 218]
pest or weed control at 125 ppm [1]: ≥ 75% | pest or weed control at 125 ppm [4]: ≥ 75% | pest or weed control at 125 ppm [3]: ≥ 75%

N=C(N)NCCCCCCCNC(=N)NCCCOCc1ccc(C2=NCCCN2)cc1 [compound 224]
pest or weed control at 125 ppm [2]: ≥ 75% | pest or weed control at 125 ppm [4]: ≥ 75% | pest or weed control at 125 ppm [3]: ≥ 75%

N=C(N)NCCCCCCCNC(=N)NCCOc1ccc(C(=N)N)cc1 [compound 236]
pest or weed control at 125 ppm [2]: ≥ 75% | pest or weed control at 125 ppm [1]: ≥ 75% | pest or weed control at 125 ppm [3]: ≥ 75%

N=C(N)NCCCCCCCNC(=N)NCCOCc1ccc(C2=NCCCN2)cc1 [compound 238]
pest or weed control at 125 ppm [2]: ≥ 75% | pest or weed control at 125 ppm [1]: ≥ 75% | pest or weed control at 125 ppm [3]: ≥ 75%

N=C(N)NCCCCCCCNC(=N)NCCCCOc1ccc(C2=NCCN2)cc1 [compound 244]
pest or weed control at 125 ppm [2]: ≥ 75% | pest or weed control at 125 ppm [1]: ≥ 75% | pest or weed control at 125 ppm [3]: ≥ 75%

N=C(N)NCCCCCCCCNC(=N)NCCCCCOc1ccc(C2=NCCCN2)cc1 [compound 248]
pest or weed control at 125 ppm [1]: ≥ 75% | pest or weed control at 125 ppm [4]: ≥ 75% | pest or weed control at 125 ppm [3]: ≥ 75%

N=C(N)NCCCCCCCCNC(=N)NCCCOCc1ccc(C2=NCCCN2)cn1 [compound 250]
pest or weed control at 125 ppm [2]: ≥ 75% | pest or weed control at 125 ppm [4]: ≥ 75% | pest or weed control at 125 ppm [3]: ≥ 75%

N=C(N)NCCCCCCCCNC(=N)NCCCc1ccc(C2=NCCCN2)cc1 [compound 252]
pest or weed control at 125 ppm [1]: ≥ 75% | pest or weed control at 125 ppm [4]: ≥ 75% | pest or weed control at 125 ppm [3]: ≥ 75%

CC1(C)CN=C(c2ccc(OCCCCNC(=N)NCCCCCCCCNC(=N)N)cc2)NC1 [compound 258]
pest or weed control at 125 ppm [1]: ≥ 75% | pest or weed control at 125 ppm [4]: ≥ 75% | pest or weed control at 125 ppm [3]: ≥ 75%

N=C(N)NCCCCCCCCNC(=N)NCCCc1cc2cc(C3=NCCCN3)ccc2o1 [compound 260]
pest or weed control at 125 ppm [1]: ≥ 75% | pest or weed control at 125 ppm [4]: ≥ 75% | pest or weed control at 125 ppm [3]: ≥ 75%

N=C(N)NCCCCCCCCNC(=N)NCc1ccc(C2=NCCCN2)cc1 [compound 262]
pest or weed control at 125 ppm [2]: ≥ 75% | pest or weed control at 125 ppm [1]: ≥ 75% | pest or weed control at 125 ppm [3]: ≥ 75%

N=C(N)NCCCCCCCCNC(=N)NCC1=CC2C=C(C3=NCCCN3)C=CC2O1 (stereo not drawn) [compound 268]
pest or weed control at 125 ppm [1]: ≥ 75% | pest or weed control at 125 ppm [4]: ≥ 75% | pest or weed control at 125 ppm [3]: ≥ 75%

N=C(N)NCCCCCCCCn1ccn(CCOc2ccc(C(=N)N)cc2)c1=N [compound 281]
pest or weed control at 125 ppm [1]: ≥ 75% | pest or weed control at 125 ppm [4]: ≥ 75% | pest or weed control at 125 ppm [3]: ≥ 75%

N=C(N)NCCCCCCCCNC(=N)NCCOc1ccc(C(=N)N)cc1 [compound 286]
pest or weed control at 125 ppm [1]: ≥ 75% | pest or weed control at 125 ppm [3]: ≥ 75%
